The conditions of series [1]: Crystal; DTA.
Series [2] in a line: Molar enthalpy of transition or fusion. The note with it: Crystal; DSC.

Structures are written as SMILES. Numbers after ± are expanded uncertainties.

For `CCCCCCCCCC(=O)O` [decanoic acid], the Normal melting temperature in series [1] came out at 32.2 ± 0.7 °C. In addition, the “Molar enthalpy of transition or fusion” value in series [2] is 6.69 ± 0.741 kcal/mol.

As to `CCCCCCCCCCO` [decan-1-ol], the Normal melting temperature in series [1] is 7.2 ± 0.7 °C. In addition, the “Molar enthalpy of transition or fusion” value in series [2] came out at 6.88 ± 0.741 kcal/mol.

In the case of `CCCCCCCC(=O)O` [octanoic acid], in series [1], the Normal melting temperature stood at 16.6 ± 0.7 °C. The “Molar enthalpy of transition or fusion” value in series [2] is 5.11 ± 0.717 kcal/mol.

Regarding `CCCCCCCCO` [octan-1-ol], the Normal melting temperature in series [1] was -14.4 ± 0.7 °C. In series [2], the “Molar enthalpy of transition or fusion” value is 5.66 ± 0.717 kcal/mol.

These data come from the NIST ThermoML archive (doi:10.1016/j.jct.2014.06.011).
